Measurements published in article PMC8277899, “A novel RyR1-selective inhibitor prevents and rescues sudden death in mouse models of malignant hyperthermia and heat stroke” (Nature Communications, 2021).
Converted amounts (≈) assume the structure as drawn. Counter-ions that a name gives are not always drawn.

Columns and labels:
[1] = Thermodynamic solubility in solutions for injection; conditions: 25 °C; for solubility at 48 h: thermodynamic from solid
[2] = cited from earlier work
[3] = tested on: RyR1 channel; design: method as in PMID 31299492; conditions: HEK293 cell-based assay; read-out: IC50 for inhibiting the RyR1 channel; cited from earlier work

**Q.** For `CCCCCCCCn1cc(C(=O)O)c(=O)c2cc3c(cc21)OCO3` [Cpd1 sodium salt], which solubility at 48 h ([1]; 5% glucose aqueous solution, saline or isotonic) is on record?
**A.** Its solubility at 48 h is 351 ± 14 µg/mL.

**Q.** What about the Solubility ([1]; Normal saline (0.9% NaCl), 48 h) of the same compound?
**A.** Its Solubility is 849 ± 58 (4) µg/mL.

**Q.** And the solubility at 48 h ([1]; pure water, water)?
**A.** The solubility at 48 h was 1360 ± 220 µg/mL.

**Q.** With `O=C1CN(/N=C/c2ccc(-c3ccc([N+](=O)[O-])cc3)o2)C(O)=N1` [dantrolene] as the compound, how does the solubility at 48 h ([1]; normal saline (0.9% NaCl), saline or isotonic) read?
**A.** The solubility at 48 h was 25.7 ± 2.1 µg/mL (≈ 81.8 µM).

**Q.** What about the “plasma half-life (t1/2)” value [2] of the same compound?
**A.** Its value is 12 h.

**Q.** And the plasma half-life ([2]; in humans after intravenous injection)?
**A.** Its plasma half-life is 10 to 12 h.

**Q.** For `CCn1cc(C(=O)O)c(=O)c2cc3c(cc21)OCO3` [oxolinic acid, reference compound], which IC50 [3] is on record?
**A.** The IC50 was 810 nM.
